Ten molecules from US11834450B2, “Compounds having ((3-nitrophenyl)sulfonyl)acetamide as BCL-2 inhibitors” (Eil Therapeutics, Inc., priority 2021, dated 2023) can be followed below.

One data set concerns RS4-11 cells. Kind of data set: Cell viability assay RS4-11 (CellTiter-Glo). It counts as cell-based. The note with it: Homo sapiens, 72 h; RS4-11 cells, 3 days, CellTiter-Glo; read-out: RS4-11 (CC50 code). In short, it runs like this: (§1)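 Cells were seeded at 2000/well (HEK293, in DMEM, pre-incubated a day) or 4000/well (other lines, in RPMI-1640). Serially diluted compound was added and plates incubated 3 days at 37 °C, with viability read by CellTiter-Glo luminescence.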
(ATP-based viability assays read luminescence as a measure of living cells.)

A further data set has as its target T1, BCL-XL (Homo sapiens, UniProt Q07817).
T1 construct: purchased BPS Bioscience #50223
Kind of data set: BCL-XL TR-FRET Assay (primary PPI inhibition). Type of data set: binding. The note with it: 60 min incubation; read-out: BCLxL (IC50 code, BCL-XL TR-FRET). The method in brief: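 TR-FRET readout (ex 340 nm; em 620/665 nm; 60 μs delay, 500 μs integration) after a 60 min incubation. Mix: compound, 10.5 ng BCL-XL, BCL-XL peptide ligand at 1:80, plus anti-His Tb donor and dye acceptor each at 1:100.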

Data set [1] can be described thus: Cell viability assay HEK293 (CellTiter-Glo). Type of data set: cell-based. The note with it: human, HEK293 cells, read-out: HEK293 (CC50 code). The method in brief:
as §1

Data set [2] deals with caspase-3 and -7 activities in RS4-11 cells. Kind of data set: Cas-3/7 activation (Caspase-Glo 3/7) in RS4-11 cells. It counts as cell-based. Particulars: Homo sapiens, 3.5 h at 37° C. and 30 min at r.t., read-out: Cas-3/7 (EC50 code). In short, it runs like this:
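RS4-11 cells were exposed to graded compound concentrations for 3.5 h at 37° C/5% CO2, then 30 min at room temperature. Caspase-3/7 activity was measured by luminescence after 30 min with a DEVD luminogenic substrate reagent.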

The target of the next data set is T2, BCL-2 (Homo sapiens, UniProt P10415).
T2 construct: purchased BPS Bioscience #50222
Put plainly: BCL-2 TR-FRET Assay (primary PPI inhibition). Type of data set: binding. Particulars: 60 min incubation; read-out: BCL2 (IC50 code, BCL-2 TR-FRET).

The next data set has as its system MOLT-4 cells. Kind of data set: Cell viability assay MOLT-4 (CellTiter-Glo). The note with it: Homo sapiens, 72 h; MOLT-4 cells, 3 days, CellTiter-Glo; read-out: MOLT-4 (CC50 code). It counts as cell-based. The method in brief:
as §1

Where only a bound is given, the exact number is not on record here.

T1 sequence (Q07817 whole entry): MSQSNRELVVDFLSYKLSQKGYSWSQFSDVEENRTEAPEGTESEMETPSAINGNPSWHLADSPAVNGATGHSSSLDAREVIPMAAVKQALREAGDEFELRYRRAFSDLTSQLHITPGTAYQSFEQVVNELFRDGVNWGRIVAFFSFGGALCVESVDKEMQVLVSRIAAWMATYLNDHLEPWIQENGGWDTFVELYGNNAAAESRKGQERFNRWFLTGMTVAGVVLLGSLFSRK
T2 sequence (P10415 whole entry): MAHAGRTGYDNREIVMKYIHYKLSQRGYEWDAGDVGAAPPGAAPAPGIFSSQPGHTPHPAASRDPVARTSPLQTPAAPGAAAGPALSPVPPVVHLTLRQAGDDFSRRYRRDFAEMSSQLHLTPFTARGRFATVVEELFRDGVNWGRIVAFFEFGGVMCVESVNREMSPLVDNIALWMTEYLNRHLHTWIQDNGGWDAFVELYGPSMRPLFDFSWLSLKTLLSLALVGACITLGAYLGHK

As to `CC(C)C(=O)N1Cc2ccc(Cl)cc2C[C@H]1CN1CCN(c2ccc(C(=O)NS(=O)(=O)c3ccc(NCC4CCOCC4)c([N+](=O)[O-])c3)c(Oc3cnc4[nH]ccc4c3)c2)CC1` [Compound 40, 4-[4-[[(3S)-6-chloro-2-(2-methylpropanoyl)-3,4-dihydro-1H-isoquinolin-3-yl]methyl]piperazin-1-yl]-N-[3-nitro-4-(tetrahydropyran-4-ylmethylamino)phenyl]sulfonyl-2-(1H-pyrrolo[2,3-b]pyridin-5-yloxy)benzamide], the CC50 (in general, the concentration that lowers cell viability or growth by half) in the data set on RS4-11 cells is above 0.2 µM; with MOLT-4 cells it was 2 to 10 µM. Besides, the IC50 (as a rule, the midpoint of a concentration-inhibition curve) on BCL-XL was above 4 µM; on BCL-2, above 0.05 µM. The CC50 at 3 days in data set [1] was in the range of 10 to 25 µM. Further, in data set [2], the EC50 is above 0.25 µM.

Consider `O=C(NS(=O)(=O)c1ccc(NCC2CCOCC2)c([N+](=O)[O-])c1)c1ccc(N2CCC(CN3Cc4ccccc4CC3c3ccccc3)CC2)cc1Oc1cnc2[nH]ccc2c1` (stereo not drawn) [Compound 41, N-[3-nitro-4-(tetrahydropyran-4-ylmethylamino)phenyl]sulfonyl-4-[4-[(3-phenyl-3,4-dihydro-1H-isoquinolin-2-yl)methyl]-1-piperidyl]-2-(1H-pyrrolo[2,3-b]pyridin-5-yloxy)benzamide], for which the figures for the CC50 in the data set with RS4-11 cells and in the data set with MOLT-4 cells were above 0.2 µM and 2 to 10 µM, respectively. Also, the concentration for half-maximal inhibition (IC50) at BCL-XL was above 4 µM; at BCL-2, above 0.05 µM. Also, the CC50 at 3 days in data set [1] was above 25 µM. Further, in data set [2], the EC50 is above 0.25 µM.

In the case of `O=C(NS(=O)(=O)c1ccc(NCC2CCOCC2)c([N+](=O)[O-])c1)c1ccc(N2CCN(CC(O)(c3ccccc3)c3ccc(Cl)cc3)CC2)cc1Oc1cnc2[nH]ccc2c1` (stereo not drawn) [Compound 43, 4-[4-[2-(4-chlorophenyl)-2-hydroxy-2-phenyl-ethyl]piperazin-1-yl]-N-[3-nitro-4-(tetrahydropyran-4-ylmethylamino)phenyl]sulfonyl-2-(1H-pyrrolo[2,3-b]pyridin-5-yloxy)benzamide], the CC50 in the data set with RS4-11 cells is above 0.2 µM; in the data set on MOLT-4 cells, 2 to 10 µM. Also, the IC50 at BCL-XL is above 4 µM; at BCL-2 it was above 0.05 µM. The CC50 at 3 days in data set [1] is above 25 µM. The EC50 in data set [2] was above 0.25 µM.

As for `CC(C)C(=O)N1Cc2ccc(F)cc2C[C@H]1CN1CCN(c2ccc(C(=O)NS(=O)(=O)c3ccc(NCC4CCOCC4)c([N+](=O)[O-])c3)c(Oc3cnc4[nH]ccc4c3)c2)CC1` [Compound 45, 4-[4-[[(3S)-6-fluoro-2-(2-methylpropanoyl)-3,4-dihydro-1H-isoquinolin-3-yl]methyl]piperazin-1-yl]-N-[3-nitro-4-(tetrahydropyran-4-ylmethylamino)phenyl]sulfonyl-2-(1H-pyrrolo[2,3-b]pyridin-5-yloxy)benzamide], the CC50 with RS4-11 cells was above 0.2 µM; in the data set with MOLT-4 cells, above 10 µM. For the same molecule, the IC50 on BCL-XL is above 4 µM; on BCL-2 it was above 0.05 µM. In addition, the CC50 at 3 days in data set [1] was above 25 µM. In data set [2], the EC50 was above 0.25 µM.

As to `O=C(NS(=O)(=O)c1ccc(NCC2CCOCC2)c([N+](=O)[O-])c1)c1ccc(N2CCC(CN3Cc4ccccc4C4(CCC4)C3)CC2)cc1Oc1cnc2[nH]ccc2c1` [Compound 46, N-[3-nitro-4-(tetrahydropyran-4-ylmethylamino)phenyl]sulfonyl-2-(1H-pyrrolo[2,3-b]pyridin-5-yloxy)-4-[4-(spiro[1,3-dihydroisoquinoline-4,1′-cyclobutane]-2-ylmethyl)-1-piperidyl]benzamide], the CC50 with RS4-11 cells was above 0.2 µM; in the data set on MOLT-4 cells, 2 to 10 µM. For the same molecule, the half-inhibitory concentration (IC50) at BCL-XL is above 4 µM; at BCL-2, above 0.05 µM. Further, in data set [1], the CC50 at 3 days is above 25 µM. The EC50 in data set [2] was above 0.25 µM.

On to `CC(C)C(=O)N1Cc2cc(F)ccc2C[C@H]1CN1CCN(c2ccc(C(=O)NS(=O)(=O)c3ccc(NCC4CCOCC4)c([N+](=O)[O-])c3)c(Oc3cnc4[nH]ccc4c3)c2)CC1` [Compound 48, 4-[4-[[(3S)-7-fluoro-2-(2-methylpropanoyl)-3,4-dihydro-1H-isoquinolin-3-yl]methyl]piperazin-1-yl]-N-[3-nitro-4-(tetrahydropyran-4-ylmethylamino)phenyl]sulfonyl-2-(1H-pyrrolo[2,3-b]pyridin-5-yloxy)benzamide], for which the values for the CC50 in the data set with RS4-11 cells and with MOLT-4 cells were above 0.2 µM and above 10 µM, respectively. For the same molecule, the figures for the IC50 on BCL-XL and at BCL-2 were above 4 µM and above 0.05 µM, respectively. Besides, the CC50 at 3 days in data set [1] is above 25 µM. Moreover, the EC50 in data set [2] is above 0.25 µM.

As to `O=C(NS(=O)(=O)c1ccc(NCC2CCOCC2)c([N+](=O)[O-])c1)c1ccc(N2CCN(C[C@@H]3Cc4cc(F)ccc4CN3C(=O)C3CC3)CC2)cc1Oc1cnc2[nH]ccc2c1` [Compound 49, 4-[4-[[(3S)-2-(cyclopropanecarbonyl)-6-fluoro-3,4-dihydro-1H-isoquinolin-3-yl]methyl]piperazin-1-yl]-N-[3-nitro-4-(tetrahydropyran-4-ylmethylamino)phenyl]sulfonyl-2-(1H-pyrrolo[2,3-b]pyridin-5-yloxy)benzamide], the CC50 in the data set on RS4-11 cells was above 0.2 µM; in the data set on MOLT-4 cells, 2 to 10 µM. Besides, the IC50 on BCL-XL was above 4 µM; on BCL-2, 0.01 to 0.05 µM. Further, the CC50 at 3 days in data set [1] is above 25 µM. Further, the EC50 in data set [2] is above 0.25 µM.

As for `O=C(NS(=O)(=O)c1ccc(NCC2CCOCC2)c([N+](=O)[O-])c1)c1ccc(N2CCN(C[C@@H]3Cc4ccc(F)cc4CN3C(=O)C3CC3)CC2)cc1Oc1cnc2[nH]ccc2c1` [Compound 50, 4-[4-[[(3S)-2-(cyclopropanecarbonyl)-7-fluoro-3,4-dihydro-1H-isoquinolin-3-yl]methyl]piperazin-1-yl]-N-[3-nitro-4-(tetrahydropyran-4-ylmethylamino)phenyl]sulfonyl-2-(1H-pyrrolo[2,3-b]pyridin-5-yloxy)benzamide], the results for the CC50 in the data set with RS4-11 cells and with MOLT-4 cells were above 0.2 µM and above 10 µM, respectively. For the same molecule, the IC50 on BCL-XL is above 4 µM; at BCL-2, above 0.05 µM. Also, in data set [1], the CC50 at 3 days was above 25 µM. The EC50 in data set [2] is above 0.25 µM.

`O=C(NS(=O)(=O)c1ccc(NCC2CCOCC2)c([N+](=O)[O-])c1)c1ccc(N2CCC(Cn3c(-c4ccc(Cl)cc4)nc4cccnc43)CC2)cc1Oc1cnc2[nH]ccc2c1` [Compound 51, 4-[4-[[2-(4-chlorophenyl)imidazo[4,5-b]pyridin-3-yl]methyl]-1-piperidyl]-N-[3-nitro-4-(tetrahydropyran-4-ylmethylamino)phenyl]sulfonyl-2-(1H-pyrrolo[2,3-b]pyridin-5-yloxy)benzamide]: the results for the CC50 in the data set on RS4-11 cells and with MOLT-4 cells were above 0.2 µM and 2 to 10 µM, respectively. Also, the IC50 was above 4 µM at BCL-XL and 0.01 to 0.05 µM on BCL-2. The CC50 at 3 days in data set [1] is above 25 µM. The EC50 in data set [2] is above 0.25 µM.

Turning to `CC1(O)CC[C@@H](CN2CCN(c3ccc(C(=O)NS(=O)(=O)c4ccc(NCC5CCOCC5)c([N+](=O)[O-])c4)c(Oc4cnc5[nH]ccc5c4)c3)CC2)[C@H](c2ccc(Cl)cc2)C1` (stereo partly drawn) [Compound 52, 4-[4-[[(1R,2R)-2-(4-chlorophenyl)-4-hydroxy-4-methyl-cyclohexyl]methyl]piperazin-1-yl]-N-[3-nitro-4-(tetrahydropyran-4-ylmethylamino)phenyl]sulfonyl-2-(1H-pyrrolo[2,3-b]pyridin-5-yloxy)benzamide], the CC50 is below 0.1 µM with RS4-11 cells and 2 to 10 µM in the data set on MOLT-4 cells. Further, the IC50 at BCL-XL is at most 2 µM; on BCL-2 it was 0.005 to 0.01 µM. Besides, the CC50 at 3 days in data set [1] fell in the range of 10 to 25 µM. For the same molecule, in data set [2], the EC50 was at most 0.1 µM.
